Experimental data published in ChEMBL document CHEMBL5143621, “Design, synthesis, and biological evaluation of β-carboline 1,3,4-oxadiazole based hybrids as HDAC inhibitors with potential antitumor effects” (Bioorg Med Chem Lett, 2022).
Values belong to the compound of their own block, whether it stands above or below them. Activity calls are given as the source filed them. The rule behind the calls is not given here.

How the values were obtained:
HCT-116 [1] = experiment: Antiproliferative activity against human HCT-116 cells assessed as inhibition of cell proliferation incubated for 72 hrs by MTT assay; type: functional, cell-based; conditions: HCT-116, 72 h
Histone deacetylase 1 = Histone deacetylase 1 (Homo sapiens, UniProt Q13547); experiment: Inhibition of HDAC1 (unknown origin)
Histone deacetylase 3 = Histone deacetylase 3 (Homo sapiens, UniProt O15379); experiment: Inhibition of HDAC3 (unknown origin)
Histone deacetylase 2 = Histone deacetylase 2 (Homo sapiens, UniProt Q92769); experiment: Inhibition of HDAC2 (unknown origin)
[2] = target: T1, Protein deacetylase HDAC6 (Homo sapiens, UniProt Q9UBN7); experiment: Inhibition of HDAC6 (unknown origin)
T1 sequence (Q9UBN7 whole entry): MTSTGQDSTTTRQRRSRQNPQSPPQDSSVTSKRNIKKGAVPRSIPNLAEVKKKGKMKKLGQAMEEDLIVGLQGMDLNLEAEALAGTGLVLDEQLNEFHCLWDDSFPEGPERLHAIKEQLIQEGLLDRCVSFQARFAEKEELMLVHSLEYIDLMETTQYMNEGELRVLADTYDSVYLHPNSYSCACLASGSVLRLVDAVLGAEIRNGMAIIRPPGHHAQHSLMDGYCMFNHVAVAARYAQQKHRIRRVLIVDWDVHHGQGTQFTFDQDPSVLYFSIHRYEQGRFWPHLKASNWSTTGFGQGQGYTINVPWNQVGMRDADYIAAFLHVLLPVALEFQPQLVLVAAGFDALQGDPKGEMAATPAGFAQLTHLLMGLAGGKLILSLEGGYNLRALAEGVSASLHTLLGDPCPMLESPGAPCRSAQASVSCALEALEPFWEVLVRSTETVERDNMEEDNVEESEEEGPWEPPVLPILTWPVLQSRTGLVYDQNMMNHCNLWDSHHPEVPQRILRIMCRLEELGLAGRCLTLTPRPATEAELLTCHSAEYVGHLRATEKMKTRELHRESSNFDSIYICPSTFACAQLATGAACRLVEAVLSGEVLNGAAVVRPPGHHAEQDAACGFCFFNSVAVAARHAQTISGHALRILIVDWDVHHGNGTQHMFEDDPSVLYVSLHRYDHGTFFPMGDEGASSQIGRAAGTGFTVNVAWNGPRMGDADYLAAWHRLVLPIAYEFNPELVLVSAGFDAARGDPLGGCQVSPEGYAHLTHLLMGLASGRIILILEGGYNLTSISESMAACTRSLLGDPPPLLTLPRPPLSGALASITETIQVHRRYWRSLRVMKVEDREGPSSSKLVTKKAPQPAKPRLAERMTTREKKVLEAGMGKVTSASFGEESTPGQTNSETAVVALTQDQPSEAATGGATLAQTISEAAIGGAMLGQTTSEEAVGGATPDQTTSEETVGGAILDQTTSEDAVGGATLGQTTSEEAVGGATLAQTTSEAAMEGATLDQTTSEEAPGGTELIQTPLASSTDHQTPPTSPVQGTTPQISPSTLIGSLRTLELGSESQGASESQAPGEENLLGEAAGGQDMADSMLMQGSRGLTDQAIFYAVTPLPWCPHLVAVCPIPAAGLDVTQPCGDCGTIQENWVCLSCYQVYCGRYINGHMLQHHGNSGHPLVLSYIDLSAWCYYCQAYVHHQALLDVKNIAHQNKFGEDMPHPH

A549 = experiment: cells; type: functional, cell-based; conditions: Homo sapiens, A549, 72 h
Description: Antiproliferative activity against human A549 cells assessed as inhibition of cell proliferation incubated for 72 hrs by MTT assay

MCF7 = experiment: cells; type: functional, cell-based; conditions: Homo sapiens, MCF7, 72 h
Description: Antiproliferative activity against human MCF7 cells assessed as inhibition of cell proliferation incubated for 72 hrs by MTT assay

Histone deacetylase 8 = target: T2, Histone deacetylase 8 (Homo sapiens, UniProt Q9BY41); experiment: Inhibition of HDAC8 (unknown origin)
T2 sequence (Q9BY41 whole entry): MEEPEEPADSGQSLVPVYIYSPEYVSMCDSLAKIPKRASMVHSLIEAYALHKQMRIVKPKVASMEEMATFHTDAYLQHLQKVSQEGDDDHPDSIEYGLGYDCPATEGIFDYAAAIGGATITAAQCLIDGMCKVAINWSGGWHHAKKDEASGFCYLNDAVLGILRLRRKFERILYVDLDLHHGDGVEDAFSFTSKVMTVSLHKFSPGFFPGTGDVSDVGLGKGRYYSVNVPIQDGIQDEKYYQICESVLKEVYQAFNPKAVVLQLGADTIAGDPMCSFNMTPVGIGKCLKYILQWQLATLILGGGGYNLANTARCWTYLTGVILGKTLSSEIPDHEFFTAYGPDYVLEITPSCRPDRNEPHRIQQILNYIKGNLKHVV

SW480 = experiment: cells; type: functional, cell-based; conditions: Homo sapiens, SW480, 72 h
Description: Antiproliferative activity against human SW480 cells assessed as inhibition of cell proliferation incubated for 72 hrs by MTT assay

HCT-116 [3] = experiment: Induction of apoptosis in human HCT-116 cells assessed as increase in number of brilliant blue apoptotic cells at 125 to 500 nM incubated for 48 hrs by Hoechst 33342 staining based fluorescence microscopic analysis; type: functional, cell-based; conditions: dose 125-500 nM
in vitro = conditions: human, L02 cells
Description: Cytotoxicity against human L02 cells assessed as inhibition of cell proliferation incubated for 72 hrs by MTT assay

HCT-116 [4] = experiment: Inhibition of colony formation in human HCT-116 cell incubated for 48 hrs by crystal violet staining based analysis; type: functional; conditions: dose 125-500 nM, DDE = dose-dependent effect
HCT-116 [5] = experiment: Induction of apoptosis in human HCT-116 cells at 125 to 500 nM incubated for 48 hrs by AnnexinV-FITC/PI staining based flow cytometry; type: functional, cell-based; conditions: dose 125-500 nM
HCT-116 [6] = experiment: Inhibition of cell migration in human HCT-116 cells incubated for 48 hrs by wound healing scratch assay; type: functional, cell-based; conditions: dose 125-500 nM, DDE = dose-dependent effect

Sequence of Histone deacetylase 1 (Q13547 whole entry): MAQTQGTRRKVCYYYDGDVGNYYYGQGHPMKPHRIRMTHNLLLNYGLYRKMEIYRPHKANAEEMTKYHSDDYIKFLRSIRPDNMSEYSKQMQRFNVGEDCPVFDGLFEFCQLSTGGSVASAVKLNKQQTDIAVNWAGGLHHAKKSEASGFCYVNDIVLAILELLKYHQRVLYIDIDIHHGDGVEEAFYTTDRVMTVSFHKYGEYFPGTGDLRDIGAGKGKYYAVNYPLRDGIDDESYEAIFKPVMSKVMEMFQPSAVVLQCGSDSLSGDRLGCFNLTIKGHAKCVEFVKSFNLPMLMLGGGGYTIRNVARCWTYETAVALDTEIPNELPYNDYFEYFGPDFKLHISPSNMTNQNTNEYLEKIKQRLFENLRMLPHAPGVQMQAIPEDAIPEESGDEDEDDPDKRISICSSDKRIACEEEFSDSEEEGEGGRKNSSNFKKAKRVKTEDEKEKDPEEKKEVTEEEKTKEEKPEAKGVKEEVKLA
Sequence of Histone deacetylase 3 (O15379 whole entry): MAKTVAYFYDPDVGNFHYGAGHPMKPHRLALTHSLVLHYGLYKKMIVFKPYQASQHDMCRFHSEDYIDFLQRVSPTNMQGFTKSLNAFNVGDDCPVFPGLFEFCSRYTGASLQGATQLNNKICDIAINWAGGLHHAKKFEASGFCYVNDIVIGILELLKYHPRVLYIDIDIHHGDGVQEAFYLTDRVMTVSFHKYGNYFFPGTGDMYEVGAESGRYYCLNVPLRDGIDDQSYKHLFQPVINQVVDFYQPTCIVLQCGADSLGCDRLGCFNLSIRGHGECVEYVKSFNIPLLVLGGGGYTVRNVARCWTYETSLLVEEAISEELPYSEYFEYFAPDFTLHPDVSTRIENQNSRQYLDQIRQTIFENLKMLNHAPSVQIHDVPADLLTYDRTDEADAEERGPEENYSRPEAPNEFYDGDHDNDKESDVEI
Sequence of Histone deacetylase 2 (Q92769 whole entry): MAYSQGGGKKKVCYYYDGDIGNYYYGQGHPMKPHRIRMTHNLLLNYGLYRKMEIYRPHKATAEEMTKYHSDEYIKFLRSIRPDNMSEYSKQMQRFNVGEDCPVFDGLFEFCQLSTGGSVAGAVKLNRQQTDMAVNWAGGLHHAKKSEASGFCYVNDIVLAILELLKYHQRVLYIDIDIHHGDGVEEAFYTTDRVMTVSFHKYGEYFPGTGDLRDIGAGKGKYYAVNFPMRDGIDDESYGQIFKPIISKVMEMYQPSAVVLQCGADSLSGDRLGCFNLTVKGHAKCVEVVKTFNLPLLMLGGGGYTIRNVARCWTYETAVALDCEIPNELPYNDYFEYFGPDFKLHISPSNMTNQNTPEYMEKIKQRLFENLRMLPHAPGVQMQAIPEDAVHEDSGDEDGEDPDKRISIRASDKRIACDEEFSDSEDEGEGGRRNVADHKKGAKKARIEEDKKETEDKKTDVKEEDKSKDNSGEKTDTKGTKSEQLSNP

Compound: O=C(CCc1nnc(-c2cc3c([nH]c4ccccc43)c(-c3ccccc3)n2)o1)NO
IC50 (HCT-116 [1]): > 10000 nM

Compound: COc1cc(-c2nc(-c3nnc(CCCCC(=O)NO)o3)cc3c2[nH]c2ccccc23)cc(OC)c1OC
IC50 (Histone deacetylase 3): 3.6 nM | IC50 (Histone deacetylase 1): 1.4 nM | IC50 (HCT-116 [1]): 190 nM | IC50 (Histone deacetylase 2): 1.2 nM | IC50 [2]: 7.3 nM | IC50 (A549): 1340 nM | IC50 (MCF7): 541 nM | IC50 (Histone deacetylase 8): > 600 nM

Compound: COc1cc(-c2nc(-c3nnc(CCCC(=O)NO)o3)cc3c2[nH]c2ccccc23)cc(OC)c1OC
IC50 (HCT-116 [1]): 1850 nM

Compound: COc1cc(-c2nc(-c3nnc(CCC(=O)NO)o3)cc3c2[nH]c2ccccc23)cc(OC)c1OC
IC50 (HCT-116 [1]): 6970 nM

Compound: O=C(CCCc1nnc(-c2cc3c([nH]c4ccccc43)c(-c3ccccc3)n2)o1)NO
IC50 (HCT-116 [1]): 7180 nM

Compound: O=C(CCCCc1nnc(-c2cc3c([nH]c4ccccc43)c(-c3ccccc3)n2)o1)NO
IC50 (Histone deacetylase 1): 1.2 nM | IC50 (HCT-116 [1]): 247 nM | IC50 (A549): < 5000 nM | IC50 (MCF7): 3760 nM

More lines, main results first:

IC50 (HCT-116 [1]): 2310 nM
Compound: O=C(CCc1nnc(-c2cc3c([nH]c4ccccc43)c(-c3ccc(C(F)(F)F)cc3)n2)o1)NO

IC50 (Histone deacetylase 1): > 600 nM | IC50 (HCT-116 [1]): > 10000 nM
Compound: Nc1ccccc1NC(=O)c1ccc(-c2nnc(-c3cc4c([nH]c5ccccc54)c(-c4ccc(C(F)(F)F)cc4)n3)o2)cc1

IC50 (HCT-116 [1]): 1360 nM
Compound: O=C(CCCc1nnc(-c2cc3c([nH]c4ccccc43)c(-c3ccc(C(F)(F)F)cc3)n2)o1)NO

IC50 (HCT-116 [1]): > 10000 nM
Compound: COc1cc(-c2nc(-c3nnc(-c4ccc(C(=O)NO)cc4)o3)cc3c2[nH]c2ccccc23)cc(OC)c1OC

IC50 (HCT-116 [1]): 9400 nM
Compound: O=C(NO)c1ccc(-c2nnc(-c3cc4c([nH]c5ccccc54)c(-c4ccc(C(F)(F)F)cc4)n3)o2)cc1

IC50 (SW480): 382 nM | IC50 (Histone deacetylase 3): 3.4 nM | IC50 (Histone deacetylase 1): 2.2 nM | IC50 at 72 h (in vitro): > 10000 nM | IC50 (HCT-116 [1]): 173 nM | IC50 (Histone deacetylase 2): 2.2 nM | IC50 [2]: 6 nM | IC50 (A549): 1740 nM | IC50 (MCF7): 695 nM | IC50 (Histone deacetylase 8): > 600 nM
Compound: O=C(CCCCc1nnc(-c2cc3c([nH]c4ccccc43)c(-c3ccc(C(F)(F)F)cc3)n2)o1)NO
Activity (HCT-116 [3]): Active | inhibition (HCT-116 [4]): Dde | Activity (HCT-116 [5]): Active | inhibition (HCT-116 [6]): Dde
